Experiments:
Test in all cases: NCI SRB growth inhibition (single dose 10 µM / five-dose)
Format in all cases: cell-based, human
[1] = tested on: HT29
Outline: (§1)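 Cells plated at 5000–40,000 cells/well by doubling time; time-zero plates TCA-fixed after 24 h. Compounds (DMSO stocks) added at five 10-fold or ½-log concentrations plus control. Adherent cells TCA-fixed, stained with 0.4% SRB in 1% acetic acid; percentage growth from Tz, C and Ti absorbances.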

[2] = tested on: TK-10
Outline: as §1

[3] = tested on: NCI-H522
Outline: as §1

[4] = tested on: SF-268
Outline: as §1

[5] = tested on: EKVX
Outline: as §1

[6] = tested on: NCI/ADR-RES
Outline: as §1

[7] = tested on: SN12C; settings: SN12C, Renal cancer; five-dose
Outline: as §1

[8] = tested on: HOP-62
Outline: as §1

[9] = tested on: SK-MEL-2
Outline: as §1

[10] = tested on: SNB-19
Outline: as §1

[11] = tested on: MDA-MB-468
Outline: as §1

[12] = tested on: SR
Outline: as §1

[13] = tested on: SNB-75
Outline: as §1

[14] = tested on: MDA-MB-231/ATCC
Outline: as §1

[15] = tested on: KM12
Outline: as §1

[16] = tested on: UACC-257
Outline: as §1

[17] = tested on: K-562
Outline: as §1

[18] = tested on: ACHN
Outline: as §1

[19] = tested on: NCI-H226
Outline: as §1

[20] = tested on: BT-549
Outline: as §1

[21] = tested on: COLO 205
Outline: as §1

[22] = tested on: IGROV1
Outline: as §1

[23] = tested on: 786–0
Outline: as §1

[24] = tested on: SK-MEL-5
Outline: as §1

[25] = tested on: NCI-H23
Outline: as §1

[26] = tested on: RPMI-8226
Outline: as §1

Substance: N'-(2-Hydroxybenzylidene)-2-phenyl-1H-benzo[d]imidazole-5-carbohydrazide [8a]
- GI% ([1]; HT29 (Colon cancer), 10 µM): L (GI% > 100)
- GI50 ([1]; HT29, Colon cancer, five-dose): 2630 nM
- GI% ([2]; TK-10 (Renal cancer), 10 µM): 65.04%
- GI50 ([2]; TK-10, Renal cancer, five-dose): 4.53 µM
- GI% ([3]; NCI-H522 (Non-small cell lung cancer), 10 µM): L (GI% > 100)
- GI50 ([3]; NCI-H522, Non-small cell lung cancer, five-dose): 1870 nM
- GI% ([4]; SF-268 (CNS cancer), 10 µM): L (GI% > 100)
- GI50 ([4]; SF-268, CNS cancer, five-dose): 2780 nM
- GI% ([5]; EKVX (Non-small cell lung cancer), 10 µM): 96.49%
- GI50 ([5]; EKVX, Non-small cell lung cancer, five-dose): 1850 nM
- GI% ([6]; NCI/ADR-RES (Ovarian cancer), 10 µM): 63.15%
- GI50 ([6]; NCI/ADR-RES, Ovarian cancer, five-dose): 3.51 µM
- GI50 [7]: 4.67 µM
- GI% ([8]; HOP-62 (Non-small cell lung cancer), 10 µM): L (GI% > 100)
- GI50 ([8]; HOP-62, Non-small cell lung cancer, five-dose): 1470 nM
- GI% ([9]; SK-MEL-2 (Melanoma), 10 µM): 60.21%
- GI50 ([9]; SK-MEL-2, Melanoma, five-dose): 3.19 µM
- GI% ([10]; SNB-19 (CNS cancer), 10 µM): 95.02%
- GI50 ([10]; SNB-19, CNS cancer, five-dose): 4.16 µM
- GI% ([11]; MDA-MB-468 (Breast cancer), 10 µM): 99.81%
- GI50 ([11]; MDA-MB-468, Breast cancer, five-dose): 3.45 µM
- GI% ([12]; SR (Leukemia), 10 µM): 92.31%
- GI50 ([12]; SR, Leukemia, five-dose): 1680 nM
- GI% ([13]; SNB-75 (CNS cancer), 10 µM): L (GI% > 100)
- GI50 ([13]; SNB-75, CNS cancer, five-dose): 2200 nM
- GI% ([14]; MDA-MB-231/ATCC (Breast cancer), 10 µM): 88.16%
- GI50 ([14]; MDA-MB-231/ATCC, Breast cancer, five-dose): 2030 nM
- GI% ([15]; KM12 (Colon cancer), 10 µM): 84.00%
- GI50 ([15]; KM12, Colon cancer, five-dose): 3.72 µM
- GI% ([16]; UACC-257 (Melanoma), 10 µM): 88.80%
- GI50 ([16]; UACC-257, Melanoma, five-dose): 4 µM
- GI% ([17]; K-562 (Leukemia), 10 µM): 78.58%
- GI50 ([17]; K-562, Leukemia, five-dose): 3.39 µM
- GI% ([18]; ACHN (Renal cancer), 10 µM): L (GI% > 100)
- GI50 ([18]; ACHN, Renal cancer, five-dose): 3.28 µM
- GI% ([19]; NCI-H226 (Non-small cell lung cancer), 10 µM): 93.32%
- GI50 ([19]; NCI-H226, Non-small cell lung cancer, five-dose): 4.02 µM
- GI% ([20]; BT-549 (Breast cancer), 10 µM): L (GI% > 100)
- GI50 ([20]; BT-549, Breast cancer, five-dose): 1800 nM
- GI% ([21]; COLO 205 (Colon cancer), 10 µM): L (GI% > 100)
- GI50 ([21]; COLO 205, Colon cancer, five-dose): 1970 nM
- GI% ([22]; IGROV1 (Ovarian cancer), 10 µM): 82.83%
- GI50 ([22]; IGROV1, Ovarian cancer, five-dose): 3.9 µM
- GI% ([23]; 786–0 (Renal cancer), 10 µM): 91.76%
- GI50 ([23]; 786–0, Renal cancer, five-dose): 3.84 µM
- GI% ([24]; SK-MEL-5 (Melanoma), 10 µM): 85.73%
- GI50 ([24]; SK-MEL-5, Melanoma, five-dose): 3.75 µM
- GI% ([25]; NCI-H23 (Non-small cell lung cancer), 10 µM): 83.12%
- GI50 ([25]; NCI-H23, Non-small cell lung cancer, five-dose): 3.31 µM
- GI% ([26]; RPMI-8226 (Leukemia), 10 µM): 88.59%
- GI50 ([26]; RPMI-8226, Leukemia, five-dose): 1190 nM
